Measured values from paper PMC5965259 (Journal of medicinal chemistry, 2018).

Test system: T. brucei AdoMetDC/prozyme
Assay: biochemical
Details: pH 7.2; human vs T. brucei AdoMetDC

`Cc1cc(Nc2cc(Br)cc(Br)c2)nc(N)n1` [Compound 44, N^4-(3,5-Dibromophenyl)-6-methylpyrimidine-2,4-diamine] was tested, and the “selectivity ratio (HsIC50/TbIC50)” value was “exceeded 100”.

Target: T1, T. brucei AdoMetDC/prozyme (Trypanosoma brucei brucei, UniProt P50244)
T1 sequence (P50244 86-370 limits assumed): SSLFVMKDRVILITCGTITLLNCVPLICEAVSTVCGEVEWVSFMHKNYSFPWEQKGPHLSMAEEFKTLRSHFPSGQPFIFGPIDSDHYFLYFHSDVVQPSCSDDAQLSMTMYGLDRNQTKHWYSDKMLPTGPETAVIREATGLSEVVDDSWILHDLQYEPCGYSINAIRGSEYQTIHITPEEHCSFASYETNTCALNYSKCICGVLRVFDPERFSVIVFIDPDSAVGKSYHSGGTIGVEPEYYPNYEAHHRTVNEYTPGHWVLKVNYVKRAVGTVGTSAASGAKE
Assay: biochemical
Details: Tb IC50, pH 7.2; mean, triplicate, 95% CI in parentheses

For `Nc1cc(Nc2cc(Cl)cc(Cl)c2)ccn1` [Compound 21, N^4-(3,5-Dichlorophenyl)pyridine-2,4-diamine], the IC50 was 29 µM.

Test system: prozyme protein levels in T. brucei cells
Assay: Western blot analysis of prozyme levels in treated T. brucei cells
Assay type: cell-based
Details: 24 h treatment at 1.5 × EC50

For `Nc1nccc(Nc2cc(Cl)cc(Cl)c2)n1` [Compound 8], the “prozyme protein level vs vehicle-only control” value was “induced prozyme above the vehicle-only control levels”.
`Nc1nc(Cl)cc(Nc2cc(Cl)cc(Cl)c2)n1` [Compound 13] was tested, and the “prozyme protein level vs vehicle-only control” value was “vehicle-only levels of the prozyme protein”.
For `Cc1cc(Nc2cc(Cl)cc(Cl)c2)ncn1` [Compound 23, N-(3,5-Dichlorophenyl)-6-methylpyrimidin-4-amine], the “prozyme protein level vs vehicle-only control” value was “vehicle-only levels of the prozyme protein”.

Test system: bloodstream form T. brucei Lister 427
Assay: ATP–bioluminescence-based bloodstream form T. brucei cell viability assay
Details: Trypanosoma brucei, 48 h, read-out: Tb427 EC50

`Nc1nccc(Nc2cc(Cl)cc(Cl)c2)n1` [Compound 8] and `Nc1nc(Cl)cc(Nc2cc(Cl)cc(Cl)c2)n1` [Compound 13] are within 1.5-fold of each other in EC50: 9.9 µM for the first, 8.9 µM for the second.

First: Nc1cc(Nc2cc(Cl)cc(Cl)c2)ccn1 [Compound 21, N^4-(3,5-Dichlorophenyl)pyridine-2,4-diamine]
Second: Cc1cc(Nc2cc(Cl)cc(Cl)c2)ncn1 [Compound 23, N-(3,5-Dichlorophenyl)-6-methylpyrimidin-4-amine]
The EC50 of the first is 2.5-fold lower: 11 µM for the first, 27 µM for the second. The first is the more potent here.

First: Cc1cc(Nc2cc(Br)cc(Br)c2)nc(N)n1 [Compound 44, N^4-(3,5-Dibromophenyl)-6-methylpyrimidine-2,4-diamine]
Second: Cc1cc(Nc2ccccc2Br)nc(N)n1 [Compound 79]
The EC50 of the first is lower: 4.8 µM for the first, greater than 25 µM for the second.

First: Cc1cc(Nc2cc(Cl)c(F)c(Cl)c2F)nc(N)n1 [Compound 73, N^4-(3,5-Dichloro-2,4-difluorophenyl)-6-methylpyrimidine-2,4-diamine]
Second: Cc1cc(Nc2ccc(Cl)cc2C)nc(N)n1 [Compound 82]
The EC50 of the first is lower: 10 µM for the first, greater than 25 µM for the second.

`Cc1cc(Nc2ccccc2C)nc(N)n1` [Compound 77] and `CSc1ccccc1Nc1cc(C)nc(N)n1` [Compound 78] cannot be ordered by EC50: greater than 25 µM for the first, greater than 25 µM for the second.

First: CCc1ccc(Nc2cc(C)nc(N)n2)cc1 [Compound 86]
Second: Cc1cc(Nc2ccc(C(C)C)cc2)nc(N)n1 [Compound 87]
The EC50 of the first is 1.7-fold higher: 19 µM for the first, 11 µM for the second. The second is the more potent here.

Compared with `Cc1cc(Nc2ccc(C(F)(F)F)cc2)nc(N)n1` [Compound 88], `Cc1cc(Nc2cc(Cl)cc(-c3ccc(C(F)(F)F)cc3)c2)nc(N)n1` [Compound 95, N^4-(5-Chloro-4′-(trifluoromethyl)-[1,1′-biphenyl]-3-yl)-6-methylpyrimidine-2,4-diamine] is 7.5-fold lower in EC50: 15 µM for the first, 2 µM for the second. The second is the more potent here.

Going from `Cc1cc(Nc2ccc(-c3cc(Cl)cc(Cl)c3)cc2)nc(N)n1` [Compound 89, N^4-(3′,5′-Dichloro-[1,1′-biphenyl]-4-yl)-6-methylpyrimidine-2,4-diamine] to `Cc1cc(Nc2cc(Cl)cc(-c3ccc(Cl)cc3)c2)nc(N)n1` [Compound 92, N^4-(4′,5-Dichloro-[1,1′-biphenyl]-3-yl)-6-methylpyrimidine-2,4-diamine], the EC50 rises from 1 µM to 2.2 µM (2.2-fold). The first is the more potent here.

Going from `Cc1cc(Nc2cc(Cl)cc(-c3ccc(F)cc3)c2)nc(N)n1` [Compound 91, N^4-(5-Chloro-4′-fluoro-[1,1′-biphenyl]-3-yl)-6-methylpyrimidine-2,4-diamine] to `Cc1ccc(-c2cc(Cl)cc(Nc3cc(C)nc(N)n3)c2)cc1` [Compound 94, N^4-(5-Chloro-4′-methyl-[1,1′-biphenyl]-3-yl)-6-methylpyrimidine-2,4-diamine], the EC50 rises from 1.6 µM to 4.3 µM (2.7-fold).

Compared with `COc1ccc(-c2cc(Cl)cc(Nc3cc(C)nc(N)n3)c2)cc1` [Compound 93, N^4-(5-Chloro-4′-methoxy-[1,1′-biphenyl]-3-yl)-6-methylpyrimidine-2,4-diamine], `Cc1cc(Nc2cc(Cl)cc(-c3ccc(O)cc3)c2)nc(N)n1` [Compound 98, 3′-((2-Amino-6-methylpyrimidin-4-yl)amino)-5′-chloro-[1,1′-biphenyl]-4-ol] is 2.2-fold higher in EC50: 4.5 µM for the first, 9.7 µM for the second.

Going from `Cc1cc(Nc2cc(Cl)cc(-c3ccc(C#N)cc3)c2)nc(N)n1` [Compound 96, 3′-((2-Amino-6-methylpyrimidin-4-yl)amino)-5′-chloro-[1,1′-biphenyl]-4-carbonitrile] to `CC(=O)c1ccc(-c2cc(Cl)cc(Nc3cc(C)nc(N)n3)c2)cc1` [Compound 97, 1-(3′-((2-Amino-6-methylpyrimidin-4-yl)amino)-5′-chloro-[1,1′-biphenyl]-4-yl)ethan-1-one], the EC50 rises from 1 µM to 6.7 µM (6.7-fold). The first is the more potent here.

Going from `Cc1cc(Nc2cc(Cl)cc(-c3ccc(-c4ccccc4)cc3)c2)nc(N)n1` [Compound 99, N^4-(5-Chloro-[1,1′:4′,1″-terphenyl]-3-yl)-6-methylpyrimidine-2,4-diamine] to `Cc1cc(Nc2cc(Cl)cc(-c3ccc4ccccc4c3)c2)nc(N)n1` [Compound 107, N^4-(3-Chloro-5-(naphthalen-2-yl)phenyl)-6-methylpyrimidine-2,4-diamine], the EC50 rises from 0.91 µM to 1.7 µM (1.9-fold). The first is the more potent here.

Going from `Cc1cc(Nc2cc(Cl)cc(-c3ccc(N(C)C)cc3)c2)nc(N)n1` [Compound 100, N^4-(5-Chloro-4′-(dimethylamino)-[1,1′-biphenyl]-3-yl)-6-methylpyrimidine-2,4-diamine] to `Cc1cc(Nc2cc(Cl)cc(-c3cccc(Cl)c3)c2)nc(N)n1` [Compound 102, N^4-(3′,5-Dichloro-[1,1′-biphenyl]-3-yl)-6-methylpyrimidine-2,4-diamine], the EC50 falls from 5 µM to 1.9 µM (2.6-fold).

Going from `Cc1cc(Nc2cc(Cl)cc(-c3ccccc3Cl)c2)nc(N)n1` [Compound 101, N^4-(2′,5-Dichloro-[1,1′-biphenyl]-3-yl)-6-methylpyrimidine-2,4-diamine] to `Cc1cc(Nc2cc(Cl)cc(-c3ccc(Cl)c(Cl)c3)c2)nc(N)n1` [Compound 103, 6-Methyl-N^4-(3′,4′,5-trichloro-[1,1′-biphenyl]-3-yl)pyrimidine-2,4-diamine], the EC50 falls from 8.5 µM to 2.9 µM (2.9-fold).

First: Cc1cc(Nc2cc(Cl)cc(-c3ccc(Cl)c(C(F)(F)F)c3)c2)nc(N)n1 [Compound 105, N^4-(4′,5-Dichloro-3′-(trifluoromethyl)-[1,1′-biphenyl]-3-yl)-6-methylpyrimidine-2,4-diamine]
Second: Cc1cc(Nc2cc(Cl)cc(-c3cc(C(F)(F)F)cc(C(F)(F)F)c3)c2)nc(N)n1 [Compound 106, N^4-(5-Chloro-3′,5′-bis(trifluoromethyl)-[1,1′-biphenyl]-3-yl)-6-methylpyrimidine-2,4-diamine]
The EC50 of the first is 2.8-fold higher: 1.5 µM for the first, 0.53 µM for the second. The second is the more potent here.

`Cc1cc(Nc2cc(Cl)cc(-c3cc4ccccc4c4ccccc34)c2)nc(N)n1` [Compound 108, N^4-(3-Chloro-5-(phenanthren-9-yl)phenyl)-6-methylpyrimidine-2,4-diamine] and `Cc1cc(Nc2cc(Cl)cc(-c3cc4ccccc4o3)c2)nc(N)n1` [Compound 112, N^4-(3-(Benzofuran-2-yl)-5-chlorophenyl)-6-methylpyrimidine-2,4-diamine] are within 1.5-fold of each other in EC50: 1.8 µM for the first, 1.4 µM for the second.

Compared with `Cc1cc(Nc2cc(Cl)cc(-c3ccc4c(c3)OCO4)c2)nc(N)n1` [Compound 109, N^4-(3-(Benzo[d][1,3]dioxol-5-yl)-5-chlorophenyl)-6-methylpyrimidine-2,4-diamine], `Cc1cc(Nc2cc(Cl)cc(-c3ccc4nonc4c3)c2)nc(N)n1` [Compound 110, N^4-(3-(Benzo[c][1,2,5]oxadiazol-5-yl)-5-chlorophenyl)-6-methylpyrimidine-2,4-diamine] is 4-fold lower in EC50: 2.3 µM for the first, 0.57 µM for the second. The second is the more potent here.

First: Cc1cc(Nc2cc(Cl)cc(-c3ccoc3)c2)nc(N)n1 [Compound 111, N^4-(3-Chloro-5-(furan-3-yl)phenyl)-6-methylpyrimidine-2,4-diamine]
Second: Cc1cc(Nc2cc(Cl)cc(-c3ccsc3)c2)nc(N)n1 [Compound 113, N^4-(3-Chloro-5-(thiophen-3-yl)phenyl)-6-methylpyrimidine-2,4-diamine]
The EC50 of the first is 4.1-fold lower: 7.1 µM for the first, 29 µM for the second. The first is the more potent here.

Compared with `Cc1cc(Nc2cc(Cl)cc(-c3cc4ccccc4s3)c2)nc(N)n1` [Compound 114, N^4-(3-(Benzo[b]thiophen-2-yl)-5-chlorophenyl)-6-methylpyrimidine-2,4-diamine], `Cc1cc(Nc2cc(Cl)cc(-c3cncs3)c2)nc(N)n1` [Compound 115, N^4-(3-Chloro-5-(thiazol-5-yl)phenyl)-6-methylpyrimidine-2,4-diamine] is 2.2-fold higher in EC50: 1.6 µM for the first, 3.6 µM for the second. The first is the more potent here.

First: Cc1cc(Nc2cc(Cl)cc(-c3cnn(C)c3)c2)nc(N)n1 [Compound 116, N^4-(3-Chloro-5-(1-methyl-1H-pyrazol-4-yl)phenyl)-6-methylpyrimidine-2,4-diamine]
Second: Cc1cc(Nc2cc(Cl)cc(-c3cncnc3)c2)nc(N)n1 [Compound 117, N^4-(3-Chloro-5-(pyrimidin-5-yl)phenyl)-6-methylpyrimidine-2,4-diamine]
The EC50 of the first is 8.7-fold lower: 6.7 µM for the first, 58 µM for the second. The first is the more potent here.

`CCc1cc(Nc2cc(C)nc(N)n2)cc(-c2ccc(F)cc2)c1` [Compound 118, N^4-(5-Ethyl-4′-fluoro-[1,1′-biphenyl]-3-yl)-6-methylpyrimidine-2,4-diamine] was tested, and the EC50 was 1.3 µM.
